The series has as its system H1N1 virus.
The mark [1] stands for this setting: one-week preventive treatment, 0.2 ml/0.4 ml/mouse iv/ip QD, till the end of the study.

Where two headings read alike, the source gives them in different places.

As for APOA-1 [RAAS-2], the “prevention of the Bird Flu Epidemiology in Mice” value (mice, H1N1) is given as 100%. Also, the “protection from body weight loss” value under setting [1] was “totally protected” and the “protection from body weight loss” value (therapeutic treatment, 0.2 ml/0.4 ml iv/ip QD, all 5 mice, days 2 to 5 post H1N1 infection) is given as “partial”. Further, the protection from death result under setting [1] is “totally protected”. For the same substance, where the note is “preventive treatment”, the “protection of body weight loss compared with oseltamivir treatment” value is “even better than that by oseltamivir treatment”. The “adverse finding / tolerance” value (therapeutic group (G2), some of the mice, day 5 post H1N1 challenge and afterward) is on record as “haematuria”. In addition, the “mice protected from death” value (therapeutic treatment, 0.2 ml/0.4 ml iv/ip QD, group of 5 mice) was “one mouse out of 5 mice”.

For the origin of these results see patent US20220133833A1, “USE OF GRAPE AND/OR SOY SUPPLEMENTS AGAINST COVID-19 AND 92 OTHER VIRUSES AND BACTERIA INCLUDING OTHER UNKNOWN VIRUSES AND BACTERIA” (priority 2020, published 2022).
